Source: patent publication US10159675B2, “Cycling therapy using 3-(5-amino-2-methyl-4-oxo-4H-quinazolin-3-yl)-piperidine-2,6-dione” (Celgene Corporation, priority 2015, dated 2018)

Key:
[1] = system: Human CD34+ bone marrow cells; assay: In vitro myeloid differentiation assay; assay type: cell-based; parameters: dose or concentration left out as unconfirmed; details: after 14 days
Procedure: Human CD34+ bone marrow cells were seeded in stem cell factor, Fms-like tyrosine kinase 3 ligand (F1t3L) and granulocyte colony-stimulating factor (G-CSF), followed by 6 days with media plus G-CSF. Compound 1 […] was added continuously or on a 5-of-7-day (5/7 d) schedule. After 14 days, myeloid maturation stages were measured by CD34, CD33, and CD11b flow cytometry.

[2] = system: patients with relapsed or refractory DLBCL; assay: Clinical study: response (International Workshop criteria for NHL), by schedule and biomarker; assay type: in vivo, human
Procedure: (§1) Sample Analysis • Aiolos was measured by flow cytometry on samples of whole blood drawn at 0 hours (pre-dose) and at 1.5 and 5 hours post-dose on cycle 1, day 1 • Archival or screening formalin-fixed paraffin-embedded (FFPE) tissues were stained for MYC and BCL2 expression6 on a Bond-Max automated slide stainer (Leica Microsystems, Buffalo Grove, Ill.) • Pathology review was performed on a hematoxylin and eosin stained slides to identify the area of DLBCL • RNA extraction and NanoString nCounter Analysis System lymphoma subtyping test (Seattle, Wash.) were performed as reported previously7 on core needle and excisional biopsy samples • For lymphocyte phenotyping, whole blood was drawn pre-dose (baseline) and 1.5 hours post-dose on cycle 1 day 15, cycle 1 day 22, cycle 2 day 15, and cycle 2 day 22 • Memory T cells ([…]) were measured by flow cytometry.

[3] = system: Memory T cells; assay: Clinical study: lymphocyte phenotyping by flow cytometry; assay type: in vivo, human; details: cycle 1, day 22, peripheral blood, 5/7 d schedule
Procedure: as §1

[4] = system: patients with relapsed or refractory DLBCL; assay: Clinical study: dose-limiting toxicities, adverse events, dose modifications
Text: Adverse events (AEs) were graded by NCI CTCAE v4.0, and responses were investigator assessed using International Workshop criteria for NHL.

[5] = 4 mg 5/7 d DLBCL-2 cohort (n=17)
[6] = 5 mg 5/7 d DLBCL-2 cohort (n=3)
[7] = AEs occurring in >20% of patients, 3 mg 28/28 d (n = 25)
[8] = AEs occurring in >20% of patients, 4 mg 5/7 d (n = 21)
[9] = Grade 3/4 AEs occurring in >1 patient, 3 mg 28/28 d (n = 25)
[10] = Grade 3/4 AEs occurring in >1 patient, 4 mg 5/7 d (n = 21)

Cc1nc2cccc(N)c2c(=O)n1C1CCC(=O)NC1=O (stereo not drawn) [Compound 1, 3-(5-amino-2-methyl-4-oxo-4H-quinazolin-3-yl)-piperidine-2,6-dione]
decreased mature neutrophils compared with vehicle ([1]; continuous exposure): 90%
decreased mature neutrophils ([1]; exposure for 5/7 d): 50%
complete responses [CR] ([2]; 3 mg 28/28 d cohort (n=22)): 2
overall response rate (ORR) ([2]; 3 mg 28/28 d cohort (n=22)): 27%
partial responses [PR] ([2]; 3 mg 28/28 d cohort (n=22)): 4
CR [2, 5]: 2
ORR [2, 5]: 39%
PR [2, 5]: 5
CR [2, 6]: 1
ORR [2, 6]: 100%
PR [2, 6]: 2
PFS ([2]; Cell of Origin ABC): 99 days
PFS ([2]; Cell of Origin GCB): 100 days
ORR ([2]; Cell of Origin Non-ABC): 8/27 (30%)
PFS ([2]; Cell of Origin Non-ABC): 64 days
ORR ([2]; Cell of Origin Non-GCB): 6/18 (33%)
PFS ([2]; Cell of Origin Non-GCB): 74 days
PFS ([2]; Cell of Origin Unclassified): 51 days
PFS ([2]; MYC/BCL2 dual expressor Negative): 70 days
PFS ([2]; MYC/BCL2 dual expressor Positive): 100 days
median increase from baseline in cytotoxic memory T cells [3]: 266%
median increase from baseline in helper memory T cells [3]: 75%
Relative dose intensity (median) ([4]; 3 mg 28/28 d (daily continuously, n = 25)): 78.6%
DLTs (kind): febrile neutropenia ([4]; 3 mg qd): Grade 3 febrile
DLTs (kind): neutropenia ([4]; 3 mg qd): Grade 4
DLTs (kind): sepsis ([4]; 3 mg qd): Grade 4 sepsis
AE asthenia, patients ([4]; 4 mg 5/7 d): 29%
AE constipation, patients ([4]; 4 mg 5/7 d): 29%
AE neutropenia, patients ([4]; 4 mg 5/7 d): 52%
AE pyrexia, patients ([4]; 4 mg 5/7 d): 57%
DLTs (kind): neutropenia ([4]; 4 mg 5/7 d): Grade 4
serious treatment-related AE neck pain ([4]; 4 mg 5/7 d): 5%
serious treatment-related AE pneumonia ([4]; 4 mg 5/7 d): 5%
serious treatment-related AE pneumonitis ([4]; 4 mg 5/7 d): 5%
Relative dose intensity (median) ([4]; 4 mg 5/7 d (n = 21)): 97.5%
DLTs reported ([4]; 4 mg 5/7 d, DLBCL-2 expansion, 19 DLT-evaluable patients): No DLTs
dose-limiting toxicities during cycle 1 ([4]; 4 mg, 21/28 d cohort (n=3)): no dose-limiting toxicities
patients requiring subsequent dose reduction due to grade 4 neutropenia ([4]; 4 mg, 21/28 d cohort (n=3)): 3 patients
DLTs (kind): febrile neutropenia ([4]; 5 mg 5/7 d): Grade 3
DLTs (kind): pneumonitis ([4]; 5 mg 5/7 d): Grade 3
MTD ([4]; 5/7 d schedule): 4 mg
NTD ([4]; 5/7 d schedule): 5 mg
severity of neutropenia ([4]; 5/7 d schedule (FIG. 2)): mitigated
non-tolerated dose (NTD) ([4]; 21/28 d schedule): 4 mg
Anemia [4, 7]: 13 (52) n (%)
Appetite [4, 7]: 1 (4) n (%)
Arrhythmia [4, 7]: 0 n (%)
Asthenia [4, 7]: 14 (56) n (%)
Constipation [4, 7]: 4 (16) n (%)
Cough [4, 7]: 10 (40) n (%)
Decreased [4, 7]: 3 (12) n (%)
Diarrhea [4, 7]: 5 (20) n (%)
Dyspnea [4, 7]: 4 (16) n (%)
Nausea [4, 7]: 4(16) n (%)
Neutropenia [4, 7]: 19 (76) n (%)
Peripheral edema [4, 7]: 7 (28) n (%)
Pyrexia [4, 7]: 10 (40) n (%)
Thrombocytopenia [4, 7]: 9 (36) n (%)
Vomiting [4, 7]: 4 (16) n (%)
Anemia [4, 8]: 5 (24) n (%)
Appetite [4, 8]: 3 (14) n (%)
Arrhythmia [4, 8]: 2 (10) n (%)
Asthenia [4, 8]: 6 (29) n (%)
Constipation [4, 8]: 6 (29) n (%)
Cough [4, 8]: 2 (10) n (%)
Decreased [4, 8]: 3 (14) n (%)
Diarrhea [4, 8]: 3 (14) n (%)
Dyspnea [4, 8]: 5 (24) n (%)
Nausea [4, 8]: 5 (24) n (%)
Neutropenia [4, 8]: 11 (52) n (%)
Peripheral edema [4, 8]: 4 (19) n (%)
Pyrexia [4, 8]: 12 (57) n (%)
Thrombocytopenia [4, 8]: 5 (21) n (%)
Vomiting [4, 8]: 5 (24) n (%)
DLTs, n (%) ([4]; DLBCL-2, 4 mg 5/7 d, 19 DLT evaluable): 0 n (%)
DLTs, n (%) ([4]; DLBCL-2, 4 mg 21/28 d, 3 DLT evaluable): 0 n (%)
DLTs, n (%) ([4]; DLBCL-2, 5 mg 5/7 d, 5 DLT evaluable): 2 (40) n (%)
Anemia [4, 9]: 3 (12) n (%)
Appetite [4, 9]: 0 n (%)
Arrhythmia [4, 9]: 0 n (%)
Asthenia [4, 9]: 5 (20) n (%)
Constipation [4, 9]: 0 n (%)
Cough [4, 9]: 0 n (%)
Decreased [4, 9]: 0 n (%)
Diarrhea [4, 9]: 0 n (%)
Dyspnea [4, 9]: 0 n (%)
Nausea [4, 9]: 0 n (%)
Neutropenia [4, 9]: 16 (64) n (%)
Peripheral edema [4, 9]: 0 n (%)
Pyrexia [4, 9]: 0 n (%)
Thrombocytopenia [4, 9]: 3 (12) n (%)
Vomiting [4, 9]: 0 n (%)
Anemia [4, 10]: 0 n (%)
Appetite [4, 10]: 0 n (%)
Arrhythmia [4, 10]: 2 (7) n (%)
Asthenia [4, 10]: 0 n (%)
Constipation [4, 10]: 0 n (%)
Cough [4, 10]: 0 n (%)
Decreased [4, 10]: 0 n (%)
Diarrhea [4, 10]: 0 n (%)
Dyspnea [4, 10]: 0 n (%)
Nausea [4, 10]: 0 n (%)
Neutropenia [4, 10]: 8 (38) n (%)
Peripheral edema [4, 10]: 0 n (%)
Pyrexia [4, 10]: 0 n (%)
Thrombocytopenia [4, 10]: 0 n (%)
Vomiting [4, 10]: 0 n (%)
DLTs, n (%) ([4]; NHL-1, 3 mg qd, 18 DLT evaluable): 3 (17) n (%)
